Like-named read-outs stand apart in the source and are kept apart here.

Assay [1] concerns the target T1, HCV NS5B (Hepatitis C virus genotype 1b, UniProt Q9WMX2).
T1 construct: The cDNA encoding the NS5B protein of HCV, genotype 1b; made in house; host or cells: E. coli BL21(DE3)
Kind of assay: Modified HCV NS5B RdRp enzyme assay (preincubation protocol). It counts as biochemical. The method, then:
HCV NS5B RdRp cloning, expression, and purification. The cDNA encoding the NS5B protein of HCV, genotype 1b, was cloned into the pET21a expression vector. The protein was expressed with an 18 amino acid C-terminal truncation to enhance the solubility. The E. coli competent cell line BL21(DE3) was used for expression of the protein. Cultures were grown at 37° C. for ˜4 hours until the cultures reached an optical density of 2.0 at 600 nm. The cultures were cooled to 20° C. and induced with 1 mM IPTG. Fresh ampicillin was added to a final concentration of 50 μg/ml and the cells were grown overnight at 20° C.
Cell pellets (3L) were lysed for purification to yield 15-24 mgs of purified NS5B. The lysis buffer consisted of 20 mM Tris-HCl, pH 7.4, 500 mM NaCl, 0.5% triton X-100, 1 mM DTT, 1 mM EDTA, 20% glycerol, 0.5 mg/ml lysozyme, 10 mM MgCl2, 15 ug/ml deoxyribonuclease I, and Complete™ protease inhibitor tablets (Roche). After addition of the lysis buffer, frozen cell pellets were resuspended using a tissue homogenizer. To reduce the viscosity of the sample, aliquots of the lysate were sonicated on ice using a microtip attached to a Branson sonicator. The sonicated lysate was centrifuged at 100,000×g for 1 hr at 4° C. and filtered through a 0.2 μm filter unit (Corning).
The protein was purified using two sequential chromatography steps: Heparin sepharose CL-6B and polyU sepharose 4B (Pharmacia). The chromatography buffers were identical to the lysis buffer but contained no lysozyme, deoxyribonuclease I, MgCl2 or protease inhibitor and the NaCl concentration of the buffer was adjusted according to the requirements for charging the protein onto the column. Each column was eluted with a NaCl gradient which varied in length from 5-50 column volumes depending on the column type. After the final chromatography step, the resulting purity of the enzyme is >90% based on SDS-PAGE analysis. The enzyme was aliquoted and stored at −80° C.
Standard HCV NS5B RdRp enzyme assay. HCV RdRp genotype 1b assays were run in a final volume of 60 μl in 96 well plates (Corning 3600). The assay buffer is composed of 20 mM Hepes, pH 7.5, 2.5 mM KCl, 2.5 mM MgCl2, 1 mM DTT, 1.6 U RNAse inhibitor (Promega N2515), 0.01 mg/ml BSA (Sigma B6917), and 2% glycerol. All compounds were serially diluted (3-fold) in DMSO and diluted further in water such that the final concentration of DMSO in the assay was 2%. HCV RdRp genotype 1b enzyme was used at a final concentration of 28 nM. A polyA template was used at 6 nM, and a biotinylated oligo-dT12 primer was used at 180 nM final concentration. Template was obtained commercially (Amersham 27-4110). Biotinylated primer was prepared by Sigma Genosys. 3H-UTP was used at 0.6 μCi (0.29 μM total UTP). Reactions were initiated by the addition of enzyme, incubated at 30° C. for 60 min, and stopped by adding 25 μl of 50 mM EDTA containing SPA beads (4 μg/μl, Amersham RPNQ 0007). Plates were read on a Packard Top Count NXT after >1 hr incubation at room temperature.
Modified HCV NS5B RdRp enzyme assay. A modified enzyme assay was performed essentially as described for the standard enzyme assay except for the following: The biotinylated oligo dT12 primer was precaptured on streptavidin-coated SPA beads by mixing primer and beads in assay buffer and incubating at room temperature for one hour. Unbound primer was removed after centrifugation. The primer-bound beads were resuspended in 20 mM Hepes buffer, pH 7.5 and used in the assay at final concentrations of 20 nM primer and 0.67 μg/μl beads. Order of addition in the assay: enzyme (1.75 nM) was added to diluted compound followed by the addition of a mixture of template (0.36 nM), 3H-UTP (0.6 μCi, 0.29 μM), and primer-bound beads, to initiate the reaction; concentrations given are final. Reactions were allowed to proceed for 4 hours at 30° C.
IC50 values for compounds were determined using seven different [I]. […]

Assay [2] has as its system HCV replicon cells. Kind of assay: HCV replicon FRET assay. It counts as cell-based. The method, then: FRET Assay Preparation. The HCV FRET screening assay was performed in 96-well cell culture plates. The FRET peptide (Anaspec, Inc.) (Taliani et al., Anal. Biochem. 1996, 240, 60-67) contains a fluorescence donor, EDANS, near one end of the peptide and an acceptor, DABCYL, near the other end. The fluorescence of the peptide is quenched by […] resonance energy transfer (RET) between the donor and the acceptor, but as the NS3 protease cleaves the peptide the products are released from RET quenching and the fluorescence of the donor becomes apparent. The assay reagent was made as follows: 5× cell Luciferase cell culture lysis reagent from Promega (#E153A) diluted to 1× with dH2O, NaCl added to 150 mM final, the FRET peptide diluted to 20 μM final from a 2 mM stock.
To prepare plates, HCV replicon cells, with or without a Renilla luciferase reporter gene, were trypsinized and plated in a 96-well plate with titrated test compounds added in columns 3 through 12; columns 1 and 2 contained a control compound (HCV control inhibitor), and the bottom row contained cells with DMSO only. The plates were then placed in a CO2 incubator at 37° C.
Assays. Subsequent to addition of the test compounds described above (FRET Assay Preparation), at various times the plate was removed and Alamar blue solution (Trek Diagnostics, #00-100) was added to measure cellular toxicity. After reading in a Cytoflour 4000 instrument (PE Biosystems), plates were rinsed with PBS and then used for FRET assay by the addition of 30 ul of the FRET peptide assay reagent described above (FRET Assay Preparation) per well. The plate was then placed into the Cytoflour 4000 instrument which had been set to 340 excite/490 emission, automatic mode for up to 20 cycles and the plate read in a kinetic mode. Typically, the signal to noise using an endpoint analysis after the reads was at least three-fold. Alternatively, after Alamar blue reading, plates were rinsed with PBS, then used for luciferase assay using the Promega Dual-Glo Luciferase Assay System or the Promega EnduRen Live Cell Substrate assay.
Compound analysis was performed by quantification of the relative HCV replicon inhibition and the relative cytotoxicity values. To calculate cytoxicity values, the average Alamar Blue fluorescence signals from the control wells were set as 100% non-toxic. The individual signals in each of the compound test wells were then divided by the average control signal and multiplied by 100% to determine […]. To calculate the HCV replicon inhibition values, an average background value was obtained from the two wells containing the highest amount of HCV control inhibitor at the end of the assay period. These numbers were similar to those obtained from naïve Huh-7 cells. The background numbers were then subtracted from the average signal obtained from the control wells and this number was used as 100% activity. The individual signals in each of the compound test wells were then divided by the averaged control values after background subtraction and multiplied by 100% to determine percent activity. EC50 values were calculated as the concentration which caused a 50% reduction in FRET or luciferase activity. The two numbers generated for the compound plate, percent cytoxicity and percent activity, were used to determine compounds of interest for further analysis.
(In general: In antiviral work, replicon cells carry a viral genome segment that copies itself.)

T1 sequence (Q9WMX2 2420-2992): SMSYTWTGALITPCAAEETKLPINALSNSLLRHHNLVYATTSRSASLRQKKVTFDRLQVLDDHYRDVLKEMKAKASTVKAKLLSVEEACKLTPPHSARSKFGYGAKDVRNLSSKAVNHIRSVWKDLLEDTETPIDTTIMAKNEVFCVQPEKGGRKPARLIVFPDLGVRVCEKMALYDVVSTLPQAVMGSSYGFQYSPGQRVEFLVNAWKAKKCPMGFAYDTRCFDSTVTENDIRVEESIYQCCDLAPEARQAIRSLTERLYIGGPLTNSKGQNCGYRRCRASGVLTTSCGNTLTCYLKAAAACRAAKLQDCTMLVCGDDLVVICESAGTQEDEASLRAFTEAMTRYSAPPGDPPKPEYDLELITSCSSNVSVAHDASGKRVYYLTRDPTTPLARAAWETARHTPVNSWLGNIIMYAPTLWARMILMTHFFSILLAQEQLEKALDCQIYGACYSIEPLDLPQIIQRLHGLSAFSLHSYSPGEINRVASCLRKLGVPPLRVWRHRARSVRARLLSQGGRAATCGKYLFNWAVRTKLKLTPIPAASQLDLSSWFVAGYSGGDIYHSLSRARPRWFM

For the molecule `CNC1CC2CCC(C1)N2C(=O)C12CC1c1cc(OC)ccc1-c1c(C3CCCCC3)c3ccc(C(=O)NS(=O)(=O)N(C)C)cc3n1C2` (stereo not drawn) [drawing 28], the IC50 in assay [1] was 4.58 to 500 nM. In assay [2] (Hepatitis C virus), this molecule displayed an EC50 of 4.58 to 500 nM.

In the case of `CNC1CC2CCC(C1)N2C(=O)C12CC1c1cc(OC)ccc1-c1c(C3CCCCC3)c3ccc(C(=O)NS(=O)(=O)N(C)C)cc3n1C2` (stereo not drawn) [drawing 29], the IC50 in assay [1] (preincubation protocol) lay within 4.58 to 500 nM. This molecule registered an EC50 in assay [2] (FRET assay) of 4.58 to 500 nM.

For `COc1ccc2c(c1)C1CC1(C(=O)N1C3CCC1CC(N(C)Cc1ccccc1)C3)Cn1c-2c(C2CCCCC2)c2ccc(C(=O)NS(=O)(=O)C(C)C)cc21` (stereo not drawn) [drawing 36], the IC50 in assay [1] was 4.58 to 500 nM. For the same molecule, the EC50 in assay [2] (Hepatitis C virus) was in the range of 4.58 to 500 nM.

On to `COc1ccc2c(c1)[C@@H]1C[C@]1(C(=O)N1C3CCC1CC(C)(O)C3)Cn1c-2c(C2CCCCC2)c2ccc(C(=O)NS(=O)(=O)N(C)C)cc21` (stereo partly drawn) [drawing 46], for which, in assay [1], the IC50 was 4.58 to 500 nM. Besides, the EC50 in assay [2] (Hepatitis C virus) fell in the range of 4.58 to 500 nM.

In the case of `COc1ccc2c(c1)[C@@H]1C[C@]1(C(=O)N1C3CCC1CC(C)(O)C3)Cn1c-2c(C2CCCCC2)c2ccc(C(=O)NS(=O)(=O)N(C)C)cc21` (stereo partly drawn) [drawing 47], the IC50 in assay [1] (preincubation protocol) fell in the range of 4.58 to 500 nM. For the same molecule, the EC50 in assay [2] (FRET assay) fell in the range of 4.58 to 500 nM.

The molecule `COc1ccc2c(c1)C1CC1(C(=O)N1C3CCCC1COC3)Cn1c-2c(C2CCCCC2)c2ccc(C(=O)NS(=O)(=O)C3CCCCC3)cc21` (stereo not drawn) [drawing 54] yielded an IC50 in assay [1] (preincubation protocol) of 4.58 to 500 nM. In addition, in assay [2] (FRET assay), the EC50 is 4.58 to 500 nM.

Take `COc1ccc2c(c1)C1CC1(C(=O)N1C3CCC1CC(N(C)Cc1ccccc1)C3)Cn1c-2c(C2CCCCC2)c2ccc(C(=O)NS(=O)(=O)C(C)C)cc21` (stereo not drawn) [drawing 55]: the IC50 in assay [1] (preincubation protocol) was 4.58 to 500 nM. The EC50 in assay [2] (FRET assay) lay in the range of 4.58 to 500 nM.

Regarding `COc1ccc2c(c1)C1CC1(C(=O)N1C3CCC1CC(N(C)Cc1ccccc1)C3)Cn1c-2c(C2CCCCC2)c2ccc(C(=O)NS(=O)(=O)C(C)C)cc21` (stereo not drawn) [drawing 56], the IC50 in assay [1] (preincubation protocol) was in the range of 4.58 to 500 nM. In assay [2] (FRET assay), this molecule had an EC50 of 4.58 to 500 nM.

In assay [1], `COc1ccc2c(c1)C1CC1(C(=O)N1C3CCCC1COC3)Cn1c-2c(C2CCCCC2)c2ccc(C(=O)NS(=O)(=O)C3CCCCC3)cc21` (stereo not drawn) [drawing 68] returned a half-maximal inhibitory concentration (IC50) of 4.58 to 500 nM. In addition, the EC50 in assay [2] (Hepatitis C virus) was 4.58 to 500 nM.

For orientation: IC50 means the concentration that gives 50% inhibition. What is called EC50 is the concentration at which the effect is half-maximal.

For the origin of these results see patent US7541353B2, “Compounds for the treatment of hepatitis C” (Bristol-Myers Squibb Company, priority 2007, dated 2009).
